Measured values reported in publication PMC5443783, “Prostaglandin E2 glyceryl ester is an endogenous agonist of the nucleotide receptor P2Y6” (Scientific Reports, 2017).
Entries after “also recorded” stand apart in the source; their conditions may differ. Read-outs that look alike come from different tables or passages of the source.

Legend:
RAW264.7 cells [1] = test: Intracellular Ca2+ measurement in RAW264.7 cells; format: cell-based, mouse
Experimental: (§1) For fluorometric measurements of intracellular Ca^2+ levels with the FlexStationII instrument (Molecular Devices), RAW264.7 and H1819 cells were seeded into 96-well plates (3.0 × 10^4 cells/well) 24 h prior to assay. Ca^2+ measurements with transiently transfected HEK293 cells were performed 48 h after transfection. Cells were loaded with 200 µl Calcium 5 reagent (Explorer Kit, Molecular Devices, USA) for 60 min at 37 °C, and the assay was performed as described. Agonists and inhibitors were solved in DMSO (100x) and diluted […] in 96-well compound plates containing HBSS. 50 µl of compound solution were added to the assay plate resulting in final concentration of 1% DMSO. Fold-response was calculated by RFUmax − RFUmin (ligand)/RFUmax − RFUmin (vehicle). EC50 values were calculated by using GraphPad Prism6 software (GraphPad, USA).

P2Y6 Y75A = target: T1, P2Y6 Y75A (Homo sapiens, UniProt Q15077, Y75A); test: IP1 accumulation assay, mutant P2Y6 Y75A; format: cell-based; settings: for IP1 formation at mutant receptor: Fig. 6d
T1 construct: expressed in transfected cells; host or cells: HEK293
T1 sequence (Q15077 whole entry Y75A): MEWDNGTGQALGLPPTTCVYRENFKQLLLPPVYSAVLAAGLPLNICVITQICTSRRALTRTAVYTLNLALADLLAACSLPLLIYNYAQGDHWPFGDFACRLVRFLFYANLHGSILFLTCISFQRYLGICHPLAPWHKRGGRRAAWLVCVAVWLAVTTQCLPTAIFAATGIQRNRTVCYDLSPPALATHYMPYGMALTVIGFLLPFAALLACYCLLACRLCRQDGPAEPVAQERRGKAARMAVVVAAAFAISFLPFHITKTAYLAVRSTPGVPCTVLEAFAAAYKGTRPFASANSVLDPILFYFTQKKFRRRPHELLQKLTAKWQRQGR
Source text: cDNA from H1819 cells was used to amplify and clone the P2RY6 and CNR2 coding sequences. They were double-tagged with an N-terminal HA epitope and a C-terminal FLAG epitope and, for transient transfection, introduced into the mammalian expression vector pcDps[56]. All mutant constructs were generated by a PCR-based site-directed mutagenesis and fragment replacement strategy. For stable transfection, P2RY6 was sub-cloned into the pIRES-eGFP vector (CLONTECH Laboratories, USA). All constructs were verified by sequencing.
(§2) To measure intracellular IP3 the HitHunter® Inositol (1,4,5) Triphosphate Assay (DiscoveRx, USA) was used according to manufacturer′s protocol. HEK293 cells stably transfected with hP2RY6 were seeded in a 384-well Black microtiter plate (15,000 cells/well) (Greiner Bio One, Germany) and incubated with indicated concentrations of UDP and PGE2-G for 20 seconds. Reaction was stopped by adding 5 µl 0.2 N perchloric acid and measurement of IP3 was performed with the Fusion AlphaScreen multilabel reader (PerkinElmer Life Sciences) according to manufacturer′s protocol. To measure IP1, HEK293 cells expressing wildtype and mutant P2Y6 were seeded into 384-well plates (5,000 cells/well) 24 h prior assay. After aspiration of the medium, cells were incubated with indicated concentrations of agonists/antagonist for 1 h. IP1 measurements using the IP-one HTFR® assay kit (Cisbio assays, USA) were performed according to manufacturer′s protocol. The assays were performed with a final concentration of 1% DMSO.

P2Y6 [2] = target: T2, P2Y6 (Homo sapiens, UniProt Q15077); test: ERK1/2 phosphorylation (AlphaScreen SureFire) in P2RY6-transfected HEK293 cells; format: cell-based; design: expressed in transfected cells; host or cells: HEK293; settings: P2RY6-transfected HEK293 cells, Fig. 3b
T2 sequence (Q15077 whole entry, the tested form may be a part): as the sequence (Q15077 whole entry Y75A) above, with A75Y counted along it
Experimental: Cells were transferred to serum-free medium 2 h prior to assay. Ligands and controls (10 µl of 10× concentrates) were added to 90 µl medium and incubated for 5 min at 37 °C. The final concentration of DMSO was 0.2%. The reaction was stopped by aspiration of the medium and addition of 50 µl lysis buffer (PerkinElmer Life Sciences). To measure ERK1/2 phosphorylation, the AlphaScreen® SureFire ERK 1/2 assay kit (PerkinElmer Life Sciences) was used with the high sensitivity protocol. Phosphorylated ERK1/2 was measured in 384-well white OptiPlate microplates (PerkinElmer Life Sciences) with the Fusion AlphaScreen multilabel reader (PerkinElmer Life Sciences).

P2Y6 [3] = target: T2, P2Y6; test: IP1 accumulation assay in HEK293 cells transfected with wildtype P2RY6; format: cell-based; design: expressed in transfected cells; host or cells: HEK293
Experimental: as §2

[4] = target: T3, cannabinoid receptor 2 (Cnr2) (Homo sapiens, UniProt P34972); test: Intracellular Ca2+ measurement in CNR2-transfected HEK293 cells; format: cell-based; settings: 200 nM of 2-AG, Fig. 2c
T3 construct: expressed in transfected cells; host or cells: HEK293
T3 sequence (P34972 whole entry): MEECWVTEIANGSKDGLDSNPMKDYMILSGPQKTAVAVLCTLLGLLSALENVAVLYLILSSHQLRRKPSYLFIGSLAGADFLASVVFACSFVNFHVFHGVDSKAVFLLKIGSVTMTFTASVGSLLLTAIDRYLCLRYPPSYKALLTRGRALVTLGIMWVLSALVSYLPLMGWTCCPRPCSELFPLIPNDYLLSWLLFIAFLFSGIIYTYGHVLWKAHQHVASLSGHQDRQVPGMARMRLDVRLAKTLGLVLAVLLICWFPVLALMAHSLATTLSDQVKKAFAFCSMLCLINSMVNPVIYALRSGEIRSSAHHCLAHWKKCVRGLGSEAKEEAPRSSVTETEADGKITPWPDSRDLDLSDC
Experimental: RAW264.7 cells were grown in DMEM supplemented with 10% FBS, A7r5 (rat […]) cells in DMEM with 10% FBS, and A431 (human squamous carcinoma) cells in RPMI supplemented with 10% FBS. All cell lines were grown at 37 °C in a humidified 5% CO2 incubator. For functional assays, receptor constructs were heterologously expressed in human embryonic kidney (HEK293) cells upon transient or stable transfection. Cells were grown in DMEM/F12 supplemented with 10% FBS, 100 units/ml penicillin, and 100 µg/ml streptomycin. For the cAMP-inhibition assay, ERK1/2 phosphorylation assay, and Ca^2+ mobilization assay, cells were split into 96-well plates (2.0 × 10^4 cells/well) and transfected with 250 ng vector construct using MACSfectin™ (Miltenyi Biotec, Germany) according to manufacturer’s protocol. Empty vector (mock) served as the negative control. For siRNA experiments, cells were seeded in 6-well plates (4.0 × 10^5 and 6.0 × 10^5 cells/well for RAW264.7 and H1819, respectively). […]
For fluorometric measurements of intracellular Ca^2+ levels with the FlexStationII instrument (Molecular Devices), RAW264.7 and H1819 cells were seeded into 96-well plates (3.0 × 10^4 cells/well) 24 h prior to assay. […] Fold-response was calculated by RFUmax − RFUmin (ligand)/RFUmax − RFUmin (vehicle). EC50 values were calculated by using GraphPad Prism6 software (GraphPad, USA).

P2Y12 = target: T4, P2Y12 (Homo sapiens, UniProt Q9H244); test: Intracellular Ca2+ release in HEK293 cells transfected with P2RY12; format: cell-based; settings: HEK293 transfected with P2RY12, Fig. 3f
T4 construct: expressed in transfected cells; host or cells: HEK293
T4 sequence (Q9H244 whole entry, species assumed): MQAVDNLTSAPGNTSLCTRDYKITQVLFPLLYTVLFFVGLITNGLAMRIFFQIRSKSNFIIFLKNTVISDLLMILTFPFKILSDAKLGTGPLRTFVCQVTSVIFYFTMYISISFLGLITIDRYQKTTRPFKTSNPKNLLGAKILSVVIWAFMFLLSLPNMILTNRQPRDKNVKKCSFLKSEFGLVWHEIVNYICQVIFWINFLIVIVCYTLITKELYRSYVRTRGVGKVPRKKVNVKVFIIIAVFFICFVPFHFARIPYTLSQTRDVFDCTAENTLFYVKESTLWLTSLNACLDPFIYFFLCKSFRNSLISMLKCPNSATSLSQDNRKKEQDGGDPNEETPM
Experimental: as §1

78 orphan GPCRs = test: PathHunter β-Arrestin Orphan GPCR cell line panel, whole panel; format: cell-based; settings: β-arrestin recruitment
Source text: For screening orphan GPCRs as possible targets for PGE2-G, the PathHunter® β-Arrestin assay (DiscoveRx Co., USA) was used. It monitors the activation of a GPCR by utilizing an enzyme fragment complementation assay with β-galactosidase as the functional reporter. Briefly, the enzyme is split into two complementary portions expressed as fusion proteins in the cell. The enzyme acceptor is fused to β2-arrestin, and the ProLink donor peptide is fused to the GPCR of interest. Upon GPCR stimulation, β2-arrestin is recruited to the receptor, bringing the two fragments of β-galactosidase together. This generates an active enzyme that can convert a chemiluminescent substrate, generating a signal detectable on a standard microplate reader (see manufacturer’s instructions). In total, 78 GPCRs, previously considered orphan and individually transfected into cells, were screened by DiscoveRx (Supplementary Table S1). The percentage activity given in the results is calculated using the following formula: % activity = 100% × (mean RLU of test sample - mean RLU of vehicle control)/mean RLU of vehicle control).

RAW264.7 cells [5] = settings: RAW264.7 and H1819 cell lines; read-out: EC50, Ca2+ response; cited from earlier work

Row | Compound | EC50 (RAW264.7 cells [1]; Fig. 1d, read-out: EC50, intracellular Ca2+ release) [nM] | EC50 (P2Y6 Y75A; Fig. 6e) [nM] | IP1 formation at mutant receptor (P2Y6 Y75A) | ERK1/2 phosphorylation (P2Y6 [2]) | EC50 (P2Y6 [3]; HEK293 stably transfected with P2RY6, Fig. 5) [nM] | EC50 (P2Y6 [3]; agonist alone, HEK293 transfected with P2RY6, Fig. 6a) [nM] | Maximum RFU for PGE2-G (RAW264.7 cells [1]; control (1% DMSO) 1,560 ± 479) | effect on intracellular Ca2+ [4] | Ca2+ release (P2Y12) | response of orphan GPCRs (78 orphan GPCRs) | EC50 (RAW264.7 cells [5]) [nM] | ratio of EC50 values UDP / PGE2-G (P2Y6 [3]; IP1 accumulation, Fig. 6a)
1 | O=c1ccn([C@@H]2O[C@H](COP(=O)(O)OP(=O)(O)O)[C@@H](O)[C@H]2O)c(=O)[nH]1 [UDP] | 38.4 ± 1.9 | 15.4 ± 0.9 | efficacy remained unchanged | led to ERK1/2 phosphorylation; also recorded: induce ERK1/2 phosphorylation | 77.3 ± 3.4 | 18.9 ± 2.3 | – | – | – | – | – | –
2 | Prostaglandin E2 glyceryl ester [PGE2-G] | – | – | loss of PGE2-G-induced IP1 formation | led to ERK1/2 phosphorylation; also recorded: induce ERK1/2 phosphorylation | – | – | 3,649 ± 678 RFU | did not | not and neither P2Y1 nor P2Y12 showed activity | None of the tested receptors demonstrated a positive response | ~0.001 | ~ 63,000
